# Counter-ions that a name gives are not always drawn.
# Tests used:
# [1] = system: MPTP-induced dopaminergic neuron-damaged PD mouse models; assay: MPTP-induced dopaminergic neuron damage PD mouse model, dose response protection and safety; type: in vivo, mice; conditions: for lowest dosage for protective effect: dopamine neuron protection; for dosage where toxic effects began to appear: mouse, in vivo, ip
# Protocol: Using MSF and ESF to conduct therapeutic studies with widely accepted MPTP-induced dopaminergic neuron-damaged PD mouse models. […] For the experimental groups of MSF and ESF, 10 dose groups were used for each drug. 10 mice in each group. Both the experimental group and the control group used intraperitoneal administration. The control group was treated with DMF. Statistically significant protective effects of dopamine neurons were found, and the dose-effect relationship was observed.
# glutathione (GSH) = assay: In vitro cell experiments, intracellular glutathione concentration; type: cell-based
# MS patients [2] = conditions: CONFIRM; cited from earlier work
# [3] = system: Nrf2 knockout mice with MPTP-induced dopaminergic neuronal damage; assay: MPTP experiments on transgenic mice with the Nrf2 gene knocked out; type: in vivo
# From the text: Inferring from the inclusion of salicyl in their molecule structure, this new target may be associated with anti-neuroinflammation.
# [4] = system: MPTP-induced mouse PD models; conditions: cited from earlier work
# MS patients [5] = conditions: DEFINE; cited from earlier work
# [6] = system: models of chronic MPTP-induced dopamine neuron damage in mice; assay: Chronic MPTP-induced dopamine neuron damage in mice; type: in vivo; conditions: 200 mg/kg/d, chronic MPTP model
# [7] = HPLC level of MSF and ESF in peripheral blood, liver and brain tissue after intraperitoneal injection; type: in vivo; conditions: after intraperitoneal injection in mice
# From the text: Unlike the positive control drug DMF which worked differently.
# glutathione = conditions: unlike DMF; cited from earlier work
# [8] = Preliminary experiments on pharmacological activities; conditions: compared with methyl and ethyl salicyl fumarate
# From the text: 7. The applicants used the same fore-mentioned synthesis routes to perform esterification of salicylic acid and fumarate esters. They obtained propyl salicyl fumarate (compound structural formula shown as C), isopropyl salicyl fumarate (compound structural formula shown as D), and butyl salicyl fumarate (compound structural formula shown as E) respectively.
# [9] = intraperitoneal administration, MPTP mice
smiles,measurement,setting,value
"COC(=O)/C=C/C(=O)OC [DMF, dimethyl fumarate, reference compound]",dosage where DMF showed toxic effect,[1]; [9],> 200 mg
same,lowest dosage for protective effect,[1]; [9],50 mg/kg/day
same,effect on glutathione concentration in the cell,glutathione (GSH),had the effect of depleting glutathione
same,reduction in recurrence,MS patients [2],34%
same,dopaminergic neuron protective effect,[3],lost the dopaminergic neuron protective effect
same,protective effects against the neural toxicity of MPTP,[4],exhibit protective effects against the neural toxicity of MPTP
same,reduction in occurrences of disability,MS patients [5],38%
same,reduction in occurrences of recurrence,MS patients [5],49%
"CCOC(=O)/C=C/C(=O)OCc1ccccc1O [ESF, ethyl salicyl fumarate]",protective effects of dopamine neurons compared to DMF,[1]; [9],more significant protective effects
same,lowest dosage for protective effect,[1]; [9],10 mg/kg/day
same,dosage where toxic effects began to appear,[1],> 500 mg/kg/day
same,effect on glutathione concentration in the cell,glutathione (GSH),no effect on the concentration of glutathione in the cell
same,dopaminergic neuron protective effect,[3],still show significant protective effects
same,dopamine neuron protection,[6],significant dopamine neuron protection
same,entry into the brain through the blood-brain barrier,[7],can enter the brain through the blood-brain barrier
same,molecular structure in the brain,[7],remains unchanged in the brain
"COC(=O)/C=C/C(=O)O [MMF, monomethyl fumarate]","glutathione consumption, inhibition of mitochondrial and glycolysis functions",glutathione,does not consume glutathione and inhibit mitochondrial and glycolysis functions
"COC(=O)/C=C/C(=O)OCc1ccccc1O [MSF, methyl salicyl fumarate]",protective effects of dopamine neurons compared to DMF,[1]; [9],more significant protective effects
same,lowest dosage for protective effect,[1]; [9],10 mg/kg/day
same,dosage where toxic effects began to appear,[1],> 500 mg/kg/day
same,effect on glutathione concentration in the cell,glutathione (GSH),no effect on the concentration of glutathione in the cell
same,dopaminergic neuron protective effect,[3],still show significant protective effects
same,dopamine neuron protection,[6],significant dopamine neuron protection
same,entry into the brain through the blood-brain barrier,[7],can enter the brain through the blood-brain barrier
same,molecular structure in the brain,[7],remains unchanged in the brain
CCCCOC(=O)/C=C/C(=O)Oc1ccccc1C(=O)O [butyl salicyl fumarate],pharmacological activities,[8],lower than those of methyl salicyl fumarate and ethyl salicyl fumarate
CC(C)OC(=O)/C=C/C(=O)Oc1ccccc1C(=O)O [isopropyl salicyl fumarate],pharmacological activities,[8],lower than those of methyl salicyl fumarate and ethyl salicyl fumarate
CCCOC(=O)/C=C/C(=O)Oc1ccccc1C(=O)O [propyl salicyl fumarate],pharmacological activities,[8],lower than those of methyl salicyl fumarate and ethyl salicyl fumarate
